Measurements: PubChem BioAssay AID1918991 (Molecular Pharmacology Branch, DTP, NCI, 2023)

Test system: 186277-243-T-J2-PDC complex spheroid growth
Assay: Anticancer human tumor 186277-243-T-J2-PDC patient-derived colon adenocarcinoma cell line growth inhibition [AhR]
Conditions: for IC50: curve of first compound; for viability, T/C: stronger effect = lower value
Text: Multicellular complex tumor spheroid response to aryl hydrocarbon receptor antagonists in combination with a variety of drugs and investigational agents in selected tumor cell lines
The current study was undertaken to assess response to aryl hydrocarbon receptor antagonists in combination with standard-of-care drugs and investigational agents in solid tumor complex spheroid models. Complex spheroids include a stromal component modeled by human endothelial cells (HUVEC) and fibroblasts modeled by human mesenchymal stem cells (MSCs). The concentration ranges selected for each drug and investigational agent were based upon clinically achievable concentrations if the clinical Cmax of the agent was known.
Compounds. The drugs and investigational agents: BAY 2416964 (NSC825713), GNF351 (NSC835774), CH-223191 (NSC835775), CPI-455 (NSC825282), aza-TdCyd (NSC777586), decitabine (NSC127716), belinostat (NSC758774), entinostat (NSC756642), pevonedistat (NSC761192), tazemetostat (NSC777109), talazoparib (NSC765396), olaparib (NSC753686), selinexor (NSC780203), nedisertib (M3814, NSC802822), bortezomib (NSC756655), venetoclax (NSC766270), doxorubicin (NSC123127), elimusertib (BAY189344, NSC800525), ceralasertib (AZD6738, NSC777638), TAK-243 (NSC785004), alisertib (NSC759677), etoposide (NSC141540), topotecan (NSC609699), eribulin (NSC707389), gemcitabine (NSC613327), carboplatin (NSC241240), cisplatin (NSC119875), and SN-38 (NSC673596) were obtained from the National Cancer Institute (NCI) Developmental Therapeutics Program Chemical Repository (32). The FDA-approved anticancer drug set is available from the Developmental Therapeutics Program at https://dtp.cancer.gov/organization/dscb/obtaining/available plates.htm. […] The stock solutions were prepared in dimethyl sulfoxide (DMSO, Sigma-Aldrich, St. Louis, MO, cat. D2650), except for the platinum compounds which were prepared in saline (Quality Biological, Gaithersburg, MD, cat. 114-055-101), at 800-fold the tested concentration and stored at -70 degrees C prior to their use. All drugs and investigational agents were tested over a range starting from a high concentration at or near the clinical Cmax and decreasing in half-log increments. If the clinical Cmax for an agent had not been determined, the highest concentration tested was 10 microM (Table 1).
Cell Culture. All cells were maintained in an incubator at 37 degrees C and 5% CO2 with 95% humidity. The PDC lines were cultured according to standard operating procedures established by the NCI PDMR (https://pdmr.cancer.gov). Briefly, all PDCs were thawed and cultured in Matrigel-coated flasks prepared with a working solution of 1X Ham's F-12 nutrient mix, without supplementation (Invitrogen, Waltham, MA, cat. 11765054), 100 U/mL penicillin-streptomycin (Invitrogen, cat. 15140122), and 2.5% Matrigel (Corning Inc., Corning, NY, cat. 354248) for the first three passages. All PDCs were cultured in complete DMEM/F-12 media containing advanced DMEM/F-12 (Invitrogen, cat. 12634028), 4.9% defined fetal bovine serum, heat inactivated (HyClone Laboratories Inc., Logan, UT, cat. SH30070.03HI), 389 ng/mL hydrocortisone (Sigma-Aldrich, cat. H4001), 9.7 ng/mL human EGF recombinant protein (Invitrogen, cat. PHG0313), 23.4 microg/mL adenine (Sigma-Aldrich, cat. A2786), 97.3 U/mL penicillin-streptomycin (Invitrogen, cat. 15140122), 1.9 mM L-glutamine (Invitrogen, cat. 25030081), and 9.7 microM Y-27632 dihydrochloride (Tocris Bioscience, Bristol, United Kingdom, cat. 1254). The PDCs were cultured in complete DMEM/F12 media without 10 microM Y-27632 dihydrochloride for at least two passages prior to the screen. The established cell lines NCI-H1341 and […] were cultured in DMEM/F-12, HEPES (Invitrogen, cat. 11330032), 5% defined fetal bovine serum (HyClone Laboratories Inc., cat. SH30070.03), ITS premix universal culture supplement [insulin (5 microg/mL), transferrin (5 microg/mL), and selenious acid (5 ng/mL)] […]
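Note: spheroids exposed to compounds for seven days before the viability read.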
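Throughout, for viability, T/C: luminescent signal used as a stand-in for viable cell amount; 100% = DMSO vehicle control wells.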

Work on `CC(C)CC(NC(=O)C(Cc1ccccc1)NC(=O)c1cnccn1)B(O)O` (stereo not given) + CC(CO)NC(=O)c1cc(-c2ccc(Cl)cc2)nn(-c2cnn(C)c2)c1=O yielded an IC50 (second compound 0.1 µM) of 5.95 nM, an IC50 (second compound 0.316 µM) of 5.9 nM and an IC50 (second compound 1 µM) of 6.06 nM. It also gave an IC50 (second compound 3.16 µM) of 5.87 nM, an IC50 (second compound 10 µM) of 5.37 nM and a viability, T/C (second compound 0.1 µM, first compound 0.000949 µM) of 117%. It also gave a viability, T/C (second compound 0.1 µM, first compound 0.003 µM) of 120%, a viability, T/C (second compound 0.1 µM, first compound 0.00949 µM) of 3.22% and a viability, T/C (second compound 0.1 µM, first compound 0.03 µM) of 0.06%. It also gave a viability, T/C (second compound 0.1 µM, first compound 0.0949 µM) of 0.07%, a viability, T/C (second compound 0.1 µM, first compound 0.3 µM) of 0.11% and a viability, T/C (second compound 0.316 µM, first compound 0.000949 µM) of 121%. It also gave a viability, T/C (second compound 0.316 µM, first compound 0.003 µM) of 117%, a viability, T/C (second compound 0.316 µM, first compound 0.00949 µM) of 3.12% and a viability, T/C (second compound 0.316 µM, first compound 0.03 µM) of 0.03%. For the same molecule, the viability, T/C (second compound 0.316 µM, first compound 0.0949 µM) was 0.05%, the viability, T/C (second compound 0.316 µM, first compound 0.3 µM) was 0.11% and the viability, T/C (second compound 1 µM, first compound 0.000949 µM) was 110%. It also gave a viability, T/C (second compound 1 µM, first compound 0.003 µM) of 132%, a viability, T/C (second compound 1 µM, first compound 0.00949 µM) of 4.62% and a viability, T/C (second compound 1 µM, first compound 0.03 µM) of 0.06%. It also gave a viability, T/C (second compound 1 µM, first compound 0.0949 µM) of 0.04%, a viability, T/C (second compound 1 µM, first compound 0.3 µM) of 0.11% and a viability, T/C (second compound 3.16 µM, first compound 0.000949 µM) of 114%. For the same molecule, the viability, T/C (second compound 3.16 µM, first compound 0.003 µM) was 118%, the viability, T/C (second compound 3.16 µM, first compound 0.00949 µM) was 2.71% and the viability, T/C (second compound 3.16 µM, first compound 0.03 µM) was 0.06%. The viability, T/C (second compound 3.16 µM, first compound 0.0949 µM) was 0.05%, the viability, T/C (second compound 3.16 µM, first compound 0.3 µM) was 0.12% and the viability, T/C (second compound 10 µM, first compound 0.000949 µM) was 96.3%. For the same molecule, the viability, T/C (second compound 10 µM, first compound 0.003 µM) was 100%, the viability, T/C (second compound 10 µM, first compound 0.00949 µM) was 2.68% and the viability, T/C (second compound 10 µM, first compound 0.03 µM) was 0.15%. It also gave a viability, T/C (second compound 10 µM, first compound 0.0949 µM) of 0.15% and a viability, T/C (second compound 10 µM, first compound 0.3 µM) of 0.23%.
In the case of `Nc1ccccc1NC(=O)c1ccc(CNC(=O)OCc2cccnc2)cc1` + CC(CO)NC(=O)c1cc(-c2ccc(Cl)cc2)nn(-c2cnn(C)c2)c1=O, the IC50 (second compound 0.1 µM) is reported as 560 nM, the IC50 (second compound 0.316 µM) is reported as 486 nM and the IC50 (second compound 1 µM) is reported as 496 nM. It also gave an IC50 (second compound 3.16 µM) of 447 nM, an IC50 (second compound 10 µM) of 211 nM and a viability, T/C (second compound 0.1 µM, first compound 0.0316 µM) of 89%. The viability, T/C (second compound 0.1 µM, first compound 0.1 µM) was 95.2%, the viability, T/C (second compound 0.1 µM, first compound 0.316 µM) was 67.4% and the viability, T/C (second compound 0.1 µM, first compound 1 µM) was 30.2%. It also gave a viability, T/C (second compound 0.1 µM, first compound 3.16 µM) of 10.7%, a viability, T/C (second compound 0.1 µM, first compound 10 µM) of 0.66% and a viability, T/C (second compound 0.316 µM, first compound 0.0316 µM) of 84.3%. It also gave a viability, T/C (second compound 0.316 µM, first compound 0.1 µM) of 87.1%, a viability, T/C (second compound 0.316 µM, first compound 0.316 µM) of 57.2% and a viability, T/C (second compound 0.316 µM, first compound 1 µM) of 32.9%. For the same molecule, the viability, T/C (second compound 0.316 µM, first compound 3.16 µM) was 8.17%, the viability, T/C (second compound 0.316 µM, first compound 10 µM) was 0.43% and the viability, T/C (second compound 1 µM, first compound 0.0316 µM) was 93%. For the same molecule, the viability, T/C (second compound 1 µM, first compound 0.1 µM) was 94.7%, the viability, T/C (second compound 1 µM, first compound 0.316 µM) was 61.8% and the viability, T/C (second compound 1 µM, first compound 1 µM) was 28.1%. The viability, T/C (second compound 1 µM, first compound 3.16 µM) was 8.39%, the viability, T/C (second compound 1 µM, first compound 10 µM) was 0.38% and the viability, T/C (second compound 3.16 µM, first compound 0.0316 µM) was 83.7%. It also gave a viability, T/C (second compound 3.16 µM, first compound 0.1 µM) of 79.7%, a viability, T/C (second compound 3.16 µM, first compound 0.316 µM) of 62.2% and a viability, T/C (second compound 3.16 µM, first compound 1 µM) of 22.2%. It also gave a viability, T/C (second compound 3.16 µM, first compound 3.16 µM) of 7.6%, a viability, T/C (second compound 3.16 µM, first compound 10 µM) of 0.3% and a viability, T/C (second compound 10 µM, first compound 0.0316 µM) of 70.3%. It also gave a viability, T/C (second compound 10 µM, first compound 0.1 µM) of 68.8%, a viability, T/C (second compound 10 µM, first compound 0.316 µM) of 39.2% and a viability, T/C (second compound 10 µM, first compound 1 µM) of 16.6%. For the same molecule, the viability, T/C (second compound 10 µM, first compound 3.16 µM) was 7.12% and the viability, T/C (second compound 10 µM, first compound 10 µM) was 0.32%.
